From patent US8314140B2, “4-hydroxythiobenzamide derivatives of drugs” (Antibe Therapeutics Inc., priority 2006, dated 2012)

Tests used:
[1] = system: leukocyte adherence to the vascular endothelium; experiment: Aspirin-induced leukocyte adherence, intravital microscopy of mesenteric venules; format: in vivo, rat; conditions: FIG. 5
Description: Leukocyte adherence was studied using intravital microscopy, as described in detail previously (Wallace et al., (1993) Am. J. Physiol. 265: 993-998, incorporated hereto by reference). Rats were anesthetized with pentobarbital sodium (60 mg/kg i.p.) and cautery incisions were made along the abdominal region. A tracheotomy was performed to facilitate breathing. The rats were placed in a supine position, and a segment of the mesentery was exteriorized through the abdominal incision. The mesentery was carefully placed over an optically clear viewing pedestal that allowed for trans-illumination of a 2-cm^2 segment of tissue. All exposed tissue was covered with saline-soaked gauze to minimize dehydration. […] A video camera mounted on the microscope (Panasonic™ digital 5000) projected the image onto a monitor, and the images were recorded for playback analysis using a videocassette recorder. Images of the mesenteric microcirculation were recorded 5 minutes prior to aspirin administration (baseline), at the time of aspirin administration (time 0-5) and every 15 minutes for 60 minutes. Leukocyte adherence was blindly quantified from videotaped images of the vessels made over 5-min periods as the number of leukocytes that remained stationary along the vessel wall for 30 s or more (expressed per 100 μm venule length). […]

COX-1 = molecular target: T1, COX-1 (Rattus norvegicus, UniProt Q63921); experiment: Whole blood thromboxane B2 synthesis in treated rats; format: in vivo; conditions: same rats as FIG. 12/13
T1 construct: whole blood thromboxane synthesis, which occurs via COX-1; from tissue; host or cells: rat whole blood, ex vivo after oral dosing
T1 sequence (Q63921 27-602): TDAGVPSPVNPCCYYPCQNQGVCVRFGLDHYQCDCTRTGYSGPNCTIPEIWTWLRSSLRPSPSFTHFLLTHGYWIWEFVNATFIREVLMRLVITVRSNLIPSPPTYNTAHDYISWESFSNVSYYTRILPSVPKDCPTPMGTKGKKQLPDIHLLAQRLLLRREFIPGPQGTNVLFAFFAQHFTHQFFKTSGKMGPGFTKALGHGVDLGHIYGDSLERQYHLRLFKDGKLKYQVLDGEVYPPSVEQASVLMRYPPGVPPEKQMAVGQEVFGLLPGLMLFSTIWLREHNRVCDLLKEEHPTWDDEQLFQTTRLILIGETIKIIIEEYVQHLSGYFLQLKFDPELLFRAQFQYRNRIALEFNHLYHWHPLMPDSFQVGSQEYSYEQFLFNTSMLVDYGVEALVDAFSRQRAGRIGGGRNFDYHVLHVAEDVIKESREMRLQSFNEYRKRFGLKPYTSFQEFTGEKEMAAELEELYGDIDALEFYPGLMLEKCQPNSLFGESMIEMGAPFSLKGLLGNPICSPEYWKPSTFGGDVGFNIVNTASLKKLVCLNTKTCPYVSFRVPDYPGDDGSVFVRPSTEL
Description: Inhibition of COX-1 was also measured using the same rats. […] The samples were then centrifuged for 3 min at 9,000 g and the supernatant was frozen at −80° C. for subsequent measurement of thromboxane B2 concentrations using a specific ELISA.
Inhibition of COX-1 was also measured using the same rats, using the same method as described for FIG. 11.

gastric ulcers = experiment: Healing of acetic acid-induced gastric ulcers; format: in vivo, rat; conditions: oral twice-daily for 4 days; 30 μmol/kg (naproxen, Compound XX 60 μmol/kg); FIG. 17
Description: Gastric ulcers were induced via serosal application of acetic acid, as described by Elliott et al., A nitric oxide-releasing nonsteroidal anti-inflammatory drug accelerates gastric ulcer healing in rats. […] After 4 days of such treatment, the rats were euthanized and the stomach was excised and photographed. The area (in mm^2) of the ulcer was determined planimetrically by an individual unaware of the treatments given to the rats.

COX-2 = molecular target: T2, COX-2 (Rattus norvegicus, UniProt P35355); experiment: Rat airpouch assay, exudate PGE2 after zymosan; format: in vivo; conditions: oral 30 min before; diclofenac 3 mg/kg, Compound XVII 4.1 mg/kg; FIG. 12
T2 construct: from tissue; host or cells: rat subcutaneous airpouch exudate, in vivo, zymosan-induced
T2 sequence (P35355 18-604): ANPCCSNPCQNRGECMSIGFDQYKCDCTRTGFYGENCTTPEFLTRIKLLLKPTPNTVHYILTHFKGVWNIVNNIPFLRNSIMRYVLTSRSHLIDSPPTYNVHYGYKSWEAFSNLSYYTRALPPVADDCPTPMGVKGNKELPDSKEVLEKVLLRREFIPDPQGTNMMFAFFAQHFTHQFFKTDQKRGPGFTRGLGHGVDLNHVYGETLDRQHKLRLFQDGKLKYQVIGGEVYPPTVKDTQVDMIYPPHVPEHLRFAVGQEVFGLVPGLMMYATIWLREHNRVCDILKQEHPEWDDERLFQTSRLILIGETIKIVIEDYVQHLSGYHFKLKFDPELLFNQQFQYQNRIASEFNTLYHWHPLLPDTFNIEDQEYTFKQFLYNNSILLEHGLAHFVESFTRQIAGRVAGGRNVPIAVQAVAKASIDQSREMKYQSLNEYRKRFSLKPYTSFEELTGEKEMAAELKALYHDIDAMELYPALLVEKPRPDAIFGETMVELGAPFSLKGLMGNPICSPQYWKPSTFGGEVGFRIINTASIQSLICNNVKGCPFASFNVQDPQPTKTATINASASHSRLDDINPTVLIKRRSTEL
Description: Briefly, a subcutaneous “pouch” is created by repeated injections of air over several days. Once established, inflammation in the pouch can be induced by injection of 1 mL of 1% zymosan. […] Another group of 5 rats was treated with the vehicle, but received an injection of 0.9% sterile saline into the pouch rather than zymosan.
Each group consisted of 5 rats.

Compound	leukocyte adherence at 60-65 minutes ([1]; 100 mg/kg intragastrically 60 min prior to aspirin)	leukocyte adherence at 60-65 minutes after glibenclamide pretreatment ([1]; glibenclamide 10 mg/kg i.p. 30 min prior, aspirin)	COX-1 activity (whole blood thromboxane synthesis) (COX-1)	gastric ulcer healing (ulcer surface area) (gastric ulcers)	exudate PGE2 in the pouch (COX-2 activity) (COX-2)
5-amino-2-(4-thiocarbamoyl-phenoxycarbonyloxy)-benzoic acid [Compound XXVII]	suppress aspirin-induced leukocyte adherence	reverse this inhibitor effect on leukocyte adherence	–	–	–
NC(=S)c1ccc(O)cc1 [4-hydroxythiobenzamide]	–	–	did not significantly affect COX-1 activity	did not significantly affect the healing of gastric ulcers	did not significantly affect COX-2 activity
